Experimental data from US20220175779A1, “COMPOUNDS AGAINST CANCER BEARING TYROSINE KINASE INHIBITOR RESISTANT EGFR MUTATIONS” (Board of Regents, The University of Texas System, priority 2019, published 2022).

Columns and labels:
[1] = biological target: T1, Ba/F3 cells expressing EGFR A767insASV (Homo sapiens, UniProt P00533, DUP767-769, cells depend on it); test: Cell viability (Cell Titer Glo), Ba/F3 cells expressing A767insASV; type: cell-based; settings: 72 hours of treatment, read-out: IC50 values, nM Average
T1 construct: A767insASV|N/A|N/A|Addgene #32066
Description: Cell viability was determined by the Cell Titer Glo assay.
Briefly, stable Ba/F3 cell lines were generated by retroviral transduction of Ba/F3 cell line for 12 hours. […] Three days after transduction, 2 μg/ml puromycin (Invitrogen) was added to the RPMI media. Cell lines were then grown in the absence of IL-3 for two weeks and cell viability was assessed every three days using the Cell Titer Glo assay (Progema).
Briefly, 2000-3000 cells per well were plated in 384-well plates (Greiner Bio-One) in technical triplicate. Cells were treated with seven different concentrations of tyrosine kinase inhibitors or vehicle alone at a final volume of 40 μL per well. After 3 days, 11 μL of Cell Titer Glo was added to each well. Plates were shaken for 15 minutes, and bioluminescence was determined using a FLUOstar OPTIMA multi-mode micro-plate reader (BMG LABTECH). Bioluminescence values were normalized to DMSO treated cells, and normalized values were plotted in GraphPad Prism using non-linear regression fit to normalized data with a variable slope.

EGFR G719X/T790M = test: In vitro sensitivity of T790M acquired with an exon 18 point mutation; type: cell-based; settings: T790M acquired with an exon 18 point mutation (G719X/T790M)
Description: Thus, in certain aspects, the subject is determined to not have a mutation at EGFR C797 and/or T790, such as C797S and/or T790M. […] However, in certain aspects, L858R/T790M/C797S, Exon 19 deletion/T790M/C797s, and exon 20 insertions+ C797S or T790M mutants are resistant to EGFR TKIs.

T1 sequence (P00533 with tags, fused parts or gaps DUP767-769): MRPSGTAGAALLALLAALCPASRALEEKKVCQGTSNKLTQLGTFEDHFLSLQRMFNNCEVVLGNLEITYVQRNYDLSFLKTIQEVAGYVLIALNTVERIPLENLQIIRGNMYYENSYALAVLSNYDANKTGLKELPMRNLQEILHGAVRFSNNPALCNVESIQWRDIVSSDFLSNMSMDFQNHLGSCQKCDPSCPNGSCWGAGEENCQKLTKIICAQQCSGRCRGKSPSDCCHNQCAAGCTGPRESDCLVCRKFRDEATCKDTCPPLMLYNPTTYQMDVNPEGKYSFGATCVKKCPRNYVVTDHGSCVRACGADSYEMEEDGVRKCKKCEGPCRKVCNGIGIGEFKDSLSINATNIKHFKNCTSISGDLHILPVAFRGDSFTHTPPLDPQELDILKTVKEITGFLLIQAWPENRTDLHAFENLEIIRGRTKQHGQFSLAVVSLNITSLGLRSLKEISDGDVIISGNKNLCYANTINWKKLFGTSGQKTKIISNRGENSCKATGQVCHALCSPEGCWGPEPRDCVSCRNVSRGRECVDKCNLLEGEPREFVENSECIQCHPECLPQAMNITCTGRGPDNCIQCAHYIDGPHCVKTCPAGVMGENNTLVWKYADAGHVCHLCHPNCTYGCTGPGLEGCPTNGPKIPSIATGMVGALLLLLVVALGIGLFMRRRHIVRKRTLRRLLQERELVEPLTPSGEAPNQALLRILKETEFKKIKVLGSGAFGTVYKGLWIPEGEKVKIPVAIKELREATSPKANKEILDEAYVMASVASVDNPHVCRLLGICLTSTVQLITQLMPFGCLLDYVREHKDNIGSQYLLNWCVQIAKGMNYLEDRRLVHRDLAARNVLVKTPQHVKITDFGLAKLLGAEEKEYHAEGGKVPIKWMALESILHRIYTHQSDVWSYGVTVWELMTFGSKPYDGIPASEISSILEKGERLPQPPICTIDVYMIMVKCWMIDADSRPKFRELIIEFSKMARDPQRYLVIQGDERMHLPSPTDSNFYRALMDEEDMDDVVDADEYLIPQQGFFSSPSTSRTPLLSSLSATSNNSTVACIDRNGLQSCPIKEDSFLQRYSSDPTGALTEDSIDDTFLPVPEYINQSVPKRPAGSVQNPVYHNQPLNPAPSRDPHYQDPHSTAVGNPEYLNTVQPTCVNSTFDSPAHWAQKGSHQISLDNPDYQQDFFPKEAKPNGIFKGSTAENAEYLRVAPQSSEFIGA

In the case of `C=CC(=O)N1CCC(Oc2cc3c(Nc4ccc(Cl)c(Cl)c4F)ncnc3cc2OC)CC1` [Poziotinib, 1-[4-[4-(3,4-dichloro-2-fluoroanilino)-7-methoxyquinazolin-6-yl]oxypiperidin-1-yl]prop-2-en-1-one], the GI50 [1] is reported as 1.62 nM and the sensitivity in vitro (EGFR G719X/T790M) is reported as “remain sensitive”.
